Test results published in paper PMC10818749, “Toxicity Studies of Cardiac-Targeting Peptide Reveal a Robust Safety Profile” (Pharmaceutics, 2024).
Ends that are not written are not given here.

Key:
[1] = target: OPRM1 (Homo sapiens, UniProt P35372); assay: OPRM1 GPCR cAMP modulation assay; type: cell-based
Protocol: GPCR cAMP Modulation Assays: cAMP Hunter cell lines were grown, plated, and subjected to Eurofins’ DiscoverX HitHunter cAMP XS+ assay. Gs agonist activity, Gi agonist activity, and antagonist activity-induced assays were read using chemiluminescent signal detection. The percentage of activity was calculated for Gs and Gi agonist assays, and the percentage of inhibition was calculated for Gs antagonist assays. […]
cAMP Second ary Messenger Assay pound results in the release of calcium from intracellular stores and DiscoverX has developed a panel of cell lines stably expressing non- an increase in dye fluorescence that is measured in real-time. tagged GPCRs that endogenously signal through cAMP. […]
The enzyme is split into two complementary portions: Enzyme Ac-ceptor (EA) and Enzyme Donor (ED). […] Active enzyme can then convert a chemilumines-cent substrate, generating an output signal detectable on a standard The NHR is tagged with the ProLink™ (PK) component of our EFC microplate reader. assay system, and the SRCP domain is fused to the Enzyme Ac-ceptor component (EA) expressed in the nucleus. […]

[2] = target: KvLQT1/minK (Homo sapiens, UniProt P15382+P51787); assay: KvLQT1/minK ion channel assay; type: cell-based; conditions: SAFETYscan ion channel assay, up to 30 µM
KvLQT1/minK, sequence (P51787 whole entry): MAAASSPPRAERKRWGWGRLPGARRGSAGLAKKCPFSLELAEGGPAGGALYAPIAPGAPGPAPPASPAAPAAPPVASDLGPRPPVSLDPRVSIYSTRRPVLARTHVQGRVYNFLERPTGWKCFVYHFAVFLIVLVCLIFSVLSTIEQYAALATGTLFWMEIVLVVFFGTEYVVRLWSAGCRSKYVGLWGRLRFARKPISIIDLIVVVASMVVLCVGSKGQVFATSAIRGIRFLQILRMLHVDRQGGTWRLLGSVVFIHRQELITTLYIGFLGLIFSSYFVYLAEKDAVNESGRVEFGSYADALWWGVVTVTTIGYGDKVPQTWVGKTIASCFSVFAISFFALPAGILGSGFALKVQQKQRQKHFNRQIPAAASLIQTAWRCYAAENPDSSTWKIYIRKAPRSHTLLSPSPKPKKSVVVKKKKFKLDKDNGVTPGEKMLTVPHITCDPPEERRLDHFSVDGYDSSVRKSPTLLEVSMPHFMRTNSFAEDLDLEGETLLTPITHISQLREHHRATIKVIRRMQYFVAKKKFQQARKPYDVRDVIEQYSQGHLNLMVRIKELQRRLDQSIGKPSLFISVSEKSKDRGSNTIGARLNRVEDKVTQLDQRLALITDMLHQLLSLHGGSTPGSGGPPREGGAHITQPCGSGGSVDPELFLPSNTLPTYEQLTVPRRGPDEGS
Protocol: Ion Channel Assays: Cell lines were grown, plated, and loaded with 1× loading buffer containing 1× dye and 2.5 mM freshly prepared probenecid. Assays were performed, and activity was measured using a FLIPR Tetra. Percent of activation and percent of inhibition were calculated to determine agonist and antagonist activity, respectively. […]
The FLIPR Potassium Assay Kit from Molecular Devices is used. It exploits the permeability of thallium ions (Tl+) through both voltage-and ligand-gated potassium (K+) channels. A novel, highly-sensiti ve
Tl+ indicator dye is utilized which produces a bright fluorescent signal upon the binding to Tl+ conducted through potassium chan-nels. […]
KINOMEscan® Assay fluorescence for improved signal/noise ratio.
The KINOMEscan screening platform employs a novel and propri- Membrane Potential Assay etary active site-directed competition binding assay to quantitatively The FLIPR® Membrane Potential Assay Kit is used which utilizes a pro-measure interactions between test compounds and the kinases. prietary fluorescent indicator dye in combination with a quencher to This robust and reliable assay technology affords investigators the reflect real-time membrane potential changes associated with ion ability to extensively annotate compounds with accurate, precise channel activation and ion transporter proteins. […]

OPRM1, sequence (P35372 whole entry): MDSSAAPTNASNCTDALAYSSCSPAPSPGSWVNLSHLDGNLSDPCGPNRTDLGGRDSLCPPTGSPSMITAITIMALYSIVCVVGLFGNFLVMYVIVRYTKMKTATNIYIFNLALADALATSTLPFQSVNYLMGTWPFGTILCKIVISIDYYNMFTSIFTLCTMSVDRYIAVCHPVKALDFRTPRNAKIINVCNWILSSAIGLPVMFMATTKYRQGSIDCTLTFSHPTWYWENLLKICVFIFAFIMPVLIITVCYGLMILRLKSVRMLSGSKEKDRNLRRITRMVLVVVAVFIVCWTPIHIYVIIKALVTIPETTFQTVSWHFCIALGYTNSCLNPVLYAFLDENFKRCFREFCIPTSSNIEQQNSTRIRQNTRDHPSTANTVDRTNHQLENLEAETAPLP

## APWHLSSQYSRT [CTP]
[1]
  antagonist action: no antagonist action
[2]
  blocking or activation: no significant blocking or activation
  opening action: nor any significant opening action
